The values below come from ChEMBL document CHEMBL3272039, “Potenial antitumor agents. 28. Deoxyribonucleic acid polyintercalating agents” (J Med Chem, 1978).

Where only a bound is given, the exact number is not on record here.

For one data set, the species on record is Bos taurus. The data set is described as follows: Displacement of ethidium bromide from calf thymus DNA by spectrofluorometric analysis.
Another data set concerns P388. The data set is described as follows: Antitumor activity against mouse P388 cells allografted in ip dosed BDF1 mouse at optimum dose administered qd for 5 days relative to control. It is filed as functional.
Data set [1] can be described thus: Toxicity in ip dosed BDF1 mouse allografted with mouse P388 cells administered qd for 5 days. It is filed as organism-based. The settings on record: BDF1, mouse, in vivo.
Data set [2] can be described thus: Lipophilic-hydrophilic balance, Rm of the compound by reversed-phase chromatographic analysis. It is filed as physicochemical.

The ILS is how much longer treated animals lived than controls. In turn, `Cl.c1ccc(OCCCCCCCCNc2ccnc3ccccc23)c(Nc2c3ccccc3nc3ccccc23)c1` displayed a C50 in the data set listed under Bos taurus of 0.6 µM. In addition, the increase in lifespan (ILS) in the data set with P388 is >25%. For the same molecule, the MTD at 120 h in data set [1] came out at 31 mg/kg/day. For the same molecule, the Rm in data set [2] is 0.59.

In the data set listed under Bos taurus, `CS(=O)(=O)Nc1ccc(Nc2c3ccccc3nc3ccccc23)c(OCCCCOc2cc(NS(C)(=O)=O)ccc2Nc2c3ccccc3nc3ccccc23)c1.Cl` gave a C50 of 0.22 µM. In addition, the ILS in the data set with P388 was >25%. The MTD at 120 h in data set [1] was > 500 mg/kg/day. The molecule also registered a Rm in data set [2] of 0.01.

`Cl.c1ccc(OCCCCCOc2ccccc2Nc2c3ccccc3nc3ccccc23)c(Nc2c3ccccc3nc3ccccc23)c1` came in with a C50 in the data set listed under Bos taurus of 1.4 µM. Further, the increase in lifespan (ILS) in the data set on P388 is on record as >25%. Besides, the MTD at 120 h in data set [1] is > 500 mg/kg/day. The Rm in data set [2] was 0.6.

For the molecule `COc1cc(NS(=O)(=O)CCCCCCS(=O)(=O)Nc2ccc(Nc3c4ccccc4nc4ccccc34)c(OC)c2)ccc1Nc1c2ccccc2nc2ccccc12.Cl.O`, the C50 in the data set listed under Bos taurus was found to be 0.15 µM. Moreover, the increase in lifespan (ILS) in the data set with P388 is >25%. In addition, the MTD at 120 h in data set [1] is 270 mg/kg/day. This molecule displayed a Rm in data set [2] of 0.42.

Regarding `Cl.O.c1ccc(OCCCCCCNc2ccnc3ccccc23)c(Nc2c3ccccc3nc3ccccc23)c1`, the C50 in the data set filed under Bos taurus is 0.99 µM. Moreover, in the data set with P388, the increase in lifespan (ILS) is on record as >25%. Besides, in data set [1], the MTD at 120 h turned out to be 15 mg/kg/day. For the same molecule, the Rm in data set [2] was 0.42.

Take `Cl.O=S(=O)(CCCCCCNc1c2ccccc2nc2ccccc12)Nc1ccc(Nc2c3ccccc3nc3ccccc23)cc1`: in the data set filed under Bos taurus, the C50 was determined as 0.21 µM. Further, the ILS in the data set with P388 is recorded as >25%. The molecule also returned an MTD at 120 h in data set [1] of 150 mg/kg/day. The Rm in data set [2] is 0.08.

On to `Cl.c1ccc(OCCCCCCOc2ccccc2Nc2c3ccccc3nc3ccccc23)c(Nc2c3ccccc3nc3ccccc23)c1`, for which, in the data set filed under Bos taurus, the C50 was found to be 2.1 µM. Moreover, the ILS in the data set with P388 is given as >25%. Besides, the MTD at 120 h in data set [1] was > 500 mg/kg/day. In addition, the Rm in data set [2] was 0.71.

As for `Cl.c1ccc(OCCCCCCCCOc2ccccc2Nc2c3ccccc3nc3ccccc23)c(Nc2c3ccccc3nc3ccccc23)c1`, the C50 in the data set filed under Bos taurus was found to be 9 µM. In the data set with P388, the ILS is >25%. Moreover, in data set [1], the MTD at 120 h is > 500 mg/kg/day. The Rm in data set [2] is listed as 0.82.

`Cl.O.c1ccc(OCCOc2ccccc2Nc2c3ccccc3nc3ccccc23)c(Nc2c3ccccc3nc3ccccc23)c1` displayed a C50 in the data set filed under Bos taurus of 0.4 µM. Also, in the data set with P388, the increase in lifespan (ILS) is listed as >25%. Also, in data set [1], the MTD at 120 h worked out at 125 mg/kg/day. In data set [2], the Rm is reported as 0.17.

On to `CCN(CC)CCCC(C)Nc1ccnc2cc(Cl)ccc12.Cl` (stereo not given), for which, in the data set filed under Bos taurus, the C50 stood at 11 µM. Moreover, the increase in life span (ILS) with P388 is >25%. The molecule also returned an MTD at 120 h in data set [1] of 40 mg/kg/day.

`Cl.c1ccc(OCCCCCCCCCCOc2ccccc2Nc2c3ccccc3nc3ccccc23)c(Nc2c3ccccc3nc3ccccc23)c1`: the C50 in the data set listed under Bos taurus amounted to 8 µM. Moreover, the increase in life span (ILS) with P388 is reported as >25%. Also, the MTD at 120 h in data set [1] is > 500 mg/kg/day. Besides, the Rm in data set [2] was 0.92.

With `Cl.O.c1ccc(OCCCCNc2ccnc3ccccc23)c(Nc2c3ccccc3nc3ccccc23)c1`, the C50 in the data set listed under Bos taurus stood at 2.6 µM. The ILS in the data set on P388 is >25%. Moreover, the MTD at 120 h in data set [1] came out at 20 mg/kg/day. The Rm in data set [2] was -0.07.

On to `c1ccc2c(NCCCCCCCCCCCCCCCCNc3c4ccccc4nc4ccccc34)c3ccccc3nc2c1`, for which the C50 in the data set listed under Bos taurus came out at 0.23 µM. Also, in the data set on P388, the ILS is listed as >25%. Also, the Rm in data set [2] is on record as 0.88.

On to `Cl.Nc1c2ccccc2nc2ccccc12` [AMINACRINE HYDROCHLORIDE], for which the C50 in the data set listed under Bos taurus came to 8.1 µM. Moreover, in the data set on P388, the ILS was >25%. For the same molecule, the MTD at 120 h in data set [1] came to 12.5 mg/kg/day. Further, the Rm in data set [2] is on record as -0.08.

As to `c1ccc2c(NCCCCCCCCCCCCCCNc3c4ccccc4nc4ccccc34)c3ccccc3nc2c1`, the C50 in the data set filed under Bos taurus is 0.14 µM. Moreover, the increase in lifespan (ILS) in the data set with P388 is on record as >25%. This molecule also returned a Rm in data set [2] of 0.82.

Regarding `CCN(CC)CCCC(C)Nc1c2ccc(Cl)cc2nc2ccc(OC)cc12.CS(C)(=O)=O` (stereo not given), the C50 in the data set filed under Bos taurus turned out to be 0.51 µM. For the same molecule, the ILS in the data set on P388 was >25%. The MTD at 120 h in data set [1] is 90 mg/kg/day.
